From ChEMBL document CHEMBL1136099, “Heterocyclic thrombin inhibitors. Part 1: design and synthesis of amidino-phenoxy quinoline derivatives” (Bioorg Med Chem Lett, 2003)

Key:
[1] = molecular target: Coagulation factor X (Homo sapiens, UniProt P00742); assay: Inhibitory activity against coagulation factor X in human plasma; format: cell-free
[2] = molecular target: Plasminogen (Homo sapiens, UniProt P00747); assay: Inhibitory activity against plasmin in human plasma
[3] = molecular target: Serine protease 1 (Homo sapiens, UniProt P07477); assay: Inhibitory activity against trypsin
[4] = molecular target: Prothrombin (Homo sapiens, UniProt P00734); assay: In vitro inhibitory activity against thrombin in human plasma; format: cell-free
[5] = Partition coefficient (logP); format: physicochemical; details: octanol/water
[6] = species: Homo sapiens; assay: Effective dose (in vitro) using activated partial thromboplastin time (aPTT); format: functional

Sequence of Plasminogen (P00747 97-580 limits assumed): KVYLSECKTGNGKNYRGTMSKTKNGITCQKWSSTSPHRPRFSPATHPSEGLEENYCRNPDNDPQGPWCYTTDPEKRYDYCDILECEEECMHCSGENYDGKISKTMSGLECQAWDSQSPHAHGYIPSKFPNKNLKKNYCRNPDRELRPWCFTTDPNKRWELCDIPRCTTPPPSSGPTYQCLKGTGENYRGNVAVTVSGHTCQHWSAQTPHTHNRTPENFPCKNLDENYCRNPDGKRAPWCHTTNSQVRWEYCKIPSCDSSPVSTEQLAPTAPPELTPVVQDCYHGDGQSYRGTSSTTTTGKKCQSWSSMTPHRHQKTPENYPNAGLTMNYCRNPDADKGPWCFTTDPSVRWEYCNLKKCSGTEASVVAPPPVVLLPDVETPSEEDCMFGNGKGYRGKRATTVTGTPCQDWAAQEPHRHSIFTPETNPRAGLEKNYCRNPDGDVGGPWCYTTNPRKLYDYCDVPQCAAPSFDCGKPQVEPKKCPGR
Sequence of Plasminogen (P00747 581-810 limits assumed): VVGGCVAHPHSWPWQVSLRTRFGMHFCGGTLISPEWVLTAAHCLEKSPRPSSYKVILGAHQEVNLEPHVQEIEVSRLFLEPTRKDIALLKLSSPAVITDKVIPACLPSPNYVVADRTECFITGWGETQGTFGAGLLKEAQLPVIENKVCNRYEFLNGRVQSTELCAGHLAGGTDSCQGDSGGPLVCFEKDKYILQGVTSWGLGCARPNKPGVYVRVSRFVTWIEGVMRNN
Sequence of Serine protease 1 (P07477 whole entry): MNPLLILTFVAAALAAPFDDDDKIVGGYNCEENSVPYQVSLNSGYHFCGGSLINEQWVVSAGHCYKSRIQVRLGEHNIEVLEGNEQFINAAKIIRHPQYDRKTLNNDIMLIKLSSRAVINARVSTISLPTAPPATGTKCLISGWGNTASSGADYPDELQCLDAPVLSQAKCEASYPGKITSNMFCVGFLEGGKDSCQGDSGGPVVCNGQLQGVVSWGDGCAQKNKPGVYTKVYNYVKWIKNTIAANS
Sequence of Coagulation factor X (P00742 41-179 limits assumed): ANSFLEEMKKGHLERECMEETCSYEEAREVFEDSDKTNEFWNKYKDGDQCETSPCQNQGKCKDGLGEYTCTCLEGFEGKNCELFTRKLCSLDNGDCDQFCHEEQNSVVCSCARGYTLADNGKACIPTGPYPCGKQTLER
Sequence of Coagulation factor X (P00742 235-488 limits assumed): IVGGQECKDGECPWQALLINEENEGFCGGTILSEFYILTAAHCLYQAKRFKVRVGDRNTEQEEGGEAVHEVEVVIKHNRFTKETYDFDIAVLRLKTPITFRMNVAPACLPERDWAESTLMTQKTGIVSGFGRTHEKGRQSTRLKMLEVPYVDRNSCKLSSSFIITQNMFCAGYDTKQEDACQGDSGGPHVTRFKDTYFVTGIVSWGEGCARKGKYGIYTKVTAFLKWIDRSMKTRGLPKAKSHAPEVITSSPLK

IC50 [2] [nM]	IC50 [3] [nM]	IC50 [4] [nM]	logP [5]	SMILES	IC50 [1] [nM]	ED200 [6] [µM]
		66		Cc1cc(Oc2ccc(C(=N)N)cc2)nc2cc(Br)ccc12		
		10		CCOC(=O)C(CC)c1ccc2c(C)cc(Oc3ccc(C(=N)N)cc3)nc2c1 (stereo not given)		
		8	0.5	Cc1ccc(C(=O)NCC(=O)O)cc1-c1ccc2c(C)cc(Oc3ccc(C(=N)N)cc3)nc2c1		0.9
		92		CCOC(=O)Cc1ccc2c(C)cc(Oc3ccc(C(=N)N)cc3)nc2c1		
6400	6700	16		CCOC(=O)/C=C(\C)c1ccc2c(C)cc(Oc3ccc(C(=N)N)cc3)nc2c1		
14800	3500	37		Cc1ccccc1-c1ccc2c(C)cc(Nc3ccc(C(=N)N)cc3)nc2c1		
25000	8100	600		C/C(=C\C(=O)O)c1ccc2c(C)cc(Oc3ccc(C(=N)N)cc3)nc2c1		
		196		Cc1cc(Sc2ccc(C(=N)N)cc2)nc2cc(Br)ccc12		
12200	4200	18		Cc1ccc(-c2ccc3c(C)cc(Oc4ccc(C(=N)N)cc4)nc3c2)cc1		
		87		Cc1cc(Nc2ccc(C(=N)N)cc2)nc2cc(Br)ccc12		
		10	1.3	CCOC(=O)CNC(=O)c1ccc(C)c(-c2ccc3c(C)cc(Oc4ccc(C(=N)N)cc4)nc3c2)c1		3.3

SMILES	IC50 [2] [nM]	IC50 [3] [nM]	IC50 [4] [nM]	logP [5]	IC50 [1] [nM]	ED200 [6] [µM]
CCOC(=O)C1(c2ccc3c(C)cc(Oc4ccc(C(=N)N)cc4)nc3c2)CCCC1	5800	560	3		1500	
Cc1ccccc1-c1ccc2c(C)cc(Oc3ccc(C(=N)N)cc3)nc2c1	8300	2900	6	> 3.5		7.9
CCOC(=O)C(C)(C)c1ccc2c(C)cc(Oc3ccc(C(=N)N)cc3)nc2c1	20000	2400	6			
